Earlier results, collected in US20210368801A1, “COMPOSITION FOR PREPARING HYPOCHLOROUS ACID WATER, AND TEST PAPER FOR DETERMINING HYPOCHLOROUS ACID WATER” (Wabian Co., Ltd., priority 2020, published 2021).

Legend:
[1] = electrolytic type; http://www.jsia.gr.jp/data/naclo.pdf
coronavirus = details: as an effective chlorine amount, according to NITE

SMILES	LD50 [1] [mg/kg]	effective concentration for the coronavirus (coronavirus) [ppm]
OCl [sodium hypochlorite]	1000	
OCl [hypochlorous acid]		35
